Source: patent US8637470B2, “Small humanin-like peptides” (The Regents of the University of California, priority 2008, dated 2014)
Entries after “also recorded” stand apart in the source; their conditions may differ.

What was measured:
[1] = system: Mouse primary cortical neurons; test: Protection of primary cortical neurons from Aβ-induced cell death (Calcein-AM); type: cell-based; settings: 25 μM Aβ1-43, 100 nM peptide, 72 h
Protocol: SHLPs protect neurons from Aβ-induced apoptosis. When it was first discovered, HN was described as a potent neural survival factor with clinical implications as a therapeutic agent against neurodegenerative diseases such as Alzheimer's Disease. Since many of the SHLPs appear to be functionally related to HN, SHLPs were tested as potential neuroprotective factors. Mouse primary cortical neurons were incubated with 25 μM Aβ1-43 in the presence or absence of 100 nM SHLP2 or 3, HNG (positive control) or 1 nM colivelin (positive control). After 72 h, neuronal viability was assessed by Calcein-AM staining followed by fluorescence microscopy (FIG. 13).

[2] = system: Mouse NIT-1 insulinoma β-cells; test: Cell proliferation (cell number by MTT/MTS cleavage) in NIT-1 cells; type: cell-based; settings: NIT-1, 100 nM peptide, 72 h
Protocol: SHLPs exert distinct effects on cell proliferation. Whether SHLPs have the capacity to influence cell proliferation, in addition to their intrinsic effects on apoptosis induction, was also investigated. Mouse NIT-1 insulinoma β-cells and 22RV1 human prostate cancer cells were serum starved for 24 h, followed by 72 h incubation with 100 nM scrambled control peptide, HN or SHLPs. Cell number, as a measure of cell proliferation, was assessed by cleavage of MTT substrate.

ERK [3] = test: ERK activation in 22RV1 cells (immunoblotting, ELISA); type: cell-based, human; settings: 22RV1, 100 nM; for ERK activation profile (immunoblotting): 15 min to 24 h
Protocol: Characterization of the intracellular signaling pathways activated by SHLPs. To determine a mechanism for the growth and apoptosis effects of SHLPs, SHLPs were tested for the ability to modulate activation of intracellular signaling pathways. 22RV1 cells in SF media were treated with 100 nM SHLP 1-5 and whole cell extracts were harvested after 15 min, 30 min, 2 h, 4 h, 8 h and 24 h. Proteins were separated by SDS-PAGE and analyzed by immunoblotting.
To test the hypothesis that SHLPs may act in concert to regulate intracellular signaling, 22RV1 cells were co-treated with SHLPs 2 and 3, and ERK activation was assessed.
(§1) Since HN causes activation of STAT3, SHLPs 2 and 3 were also tested for effects on STAT3. […] To more accurately quantify the ERK phosphorylation caused by SHLPs 2 and 3, we repeated the experiment as described above but used a commercially available ERK ELISA to assess ERK phosphorylation. Optimal ERK activation by SHLP2 was 9-fold after 24 h, whilst optimal activation by SHLP3 was 12-fold after 2 h (FIG. 5).

ERK [4] = test: ERK phosphorylation in NIT-1 cells (immunoblotting, ELISA); type: cell-based, mouse; settings: NIT-1, 100 nM
Protocol: (§2) In addition to 22RV1, the effects of SHLPs on ERK and STAT3 phosphorylation were also studied in NIT-1 pancreatic β-cells. […] Indeed, the activation profile caused by SHLP3 in NIT-1 is remarkably similar to that stimulated by SHLP2 in 22RV1. When ERK activation was quantified by ELISA, a 6-fold and 9-fold activation was observed after 2 and 24 h, respectively, by SHLP2.

[5] = system: 22RV1 human prostate cancer cells; test: Apoptosis ELISA (fragmentation of histone-associated DNA) in 22RV1 cells; type: cell-based; settings: for Protective effect of SHLP on apoptosis after stattic pre-treatment: 22RV1, 20 μM stattic (STAT3 inhibitor), 100 nM peptide; for Effect of SHLP on apoptosis after PD98059 pre-treatment: 22RV1, 25 μM PD98059 (ERK1/2 inhibitor); for Apoptosis (fragmentation of histone-associated DNA): 22RV1, serum starved 24 h, then 24 h with 100 μM peptide
Protocol: SHLPs are anti-apoptotic in 22RV1 prostate cancer cells and NIT-1 β-cells. […] Mouse NIT-1 insulinoma β-cells and 22RV1 human prostate cancer cells were serum starved for 24 h, followed by 24 h incubation with 100 nM scrambled control peptide, HN or SHLPs. Apoptosis was assessed and quantified by ELISA for fragmentation of histone-associated DNA.
ERK activation is necessary for SHLP-induced inhibition of apoptosis in NIT-1 and 22RV1 cells. To determine the significance of ERK activation for apoptosis inhibition by SHLPs 2 and 3, PD98059 (PD), a specific chemical inhibitor of ERK1/2, was utilized. 22RV1 and NIT-1 cells were serum starved for 24 h in the presence or absence of 25 μM PD or 1 μM wortmannin (PI3-kinase inhibitor; negative control), followed by 24 h incubation with […] scrambled control peptide, SHLP2 or SHLP3. Apoptosis was then assessed by ELISA for fragmentation of histone-associated DNA.
STAT3 Activation is also necessary for SHLP-induced cell survival in 22RV1 cells. Since SHLPs 2 and 3 both stimulate STAT3 phosphorylation in addition to ERK activation, the hypothesis that STAT3 activation occurs downstream of ERK1/2 was tested using a specific chemical inhibitor against STAT3, stattic. 22RV1 cells were incubated for 24 h in SF media in the presence or absence of 20 μM stattic followed by 24 h incubation with 100 nM scrambled control peptide, SHLP2 or SHLP3. Apoptosis was assessed by ELISA for fragmentation of histone-associated DNA. […]

STAT3 [6] = test: STAT3 phosphorylation in NIT-1 cells (immunoblotting); type: cell-based, mouse; settings: NIT-1, 100 nM
Protocol: as §2

S. cerevisiae = test: Yeast heat shock survival; type: cell-based; settings: 10 μM peptide, 90° heat shock
Protocol: SHLPs enhance stress resistance in yeast. The ability of SHLPs to enhance stress resistance in yeast was tested. The ability of yeast to survive heat shock after being treated with different peptides is a commonly used method to test the ability of peptides to enhance yeast survival.

STAT3 [7] = test: STAT3 activation in 22RV1 cells (immunoblotting); type: cell-based, human; settings: 22RV1, 100 nM
Protocol: as §1

[8] = system: murine 3T3-L1 fibroblasts; test: 3T3-L1 adipocyte differentiation (oil red-O staining); type: cell-based; settings: 100 nM peptide with 10 nM insulin, 7 days
Protocol: SHLPs 2 and 3 Stimulate Adipocyte Differentiation of 3T3-L1 Cells in vitro. […] We next assessed the ability of SHLP2, 3 and 6 to modulate the differentiation of 3T3-L1 adipocytes. Differentiation was induced in murine 3T3-L1 fibroblasts by incubation in 1 μM dexamethasone, 100 nM insulin, and 500 μM lisobutylmethyxanthine for 2 days, followed by incubation with 10 nM insulin in the presence of 100 nM scrambled peptide (control), SHLP2, SHLP3 or SHLP6 for 7 days. Differentiation was assessed by oil red-0 staining as a measure of oil droplet formation.

| Sequence | Neuronal viability against Aβ-induced cell death [1] | Cell number as a measure of cell proliferation [2] | ERK activation profile (immunoblotting) (ERK [3]) | Optimal ERK activation (ELISA) (ERK [3]; after 24 h) [fold] | ERK phosphorylation profile (immunoblotting) (ERK [4]) | ERK activation (ELISA) (ERK [4]; after 2 h) | ERK activation (ELISA) (ERK [4]; after 24 h) [fold] | SHLP-induced cell survival after wortmannin pre-treatment ([5]; 22RV1, 1 μM wortmannin (PI3-kinase inhibitor)) | Protective effect of SHLP on apoptosis after stattic pre-treatment [5] | Effect of SHLP on apoptosis after PD98059 pre-treatment [5] | Apoptosis (fragmentation of histone-associated DNA) [5] | STAT3 activation/phosphorylation (immunoblotting) (STAT3 [6]) | Yeast survival of heat shock (S. cerevisiae) | STAT3 activation (immunoblotting) (STAT3 [7]) | Adipocyte differentiation (oil red-O staining) [8] | Time to ERK activation (ERK [3]) [min] | Optimal ERK activation (ELISA) (ERK [3]; after 2 h) [fold] |
| --- | --- | --- | --- | --- | --- | --- | --- | --- | --- | --- | --- | --- | --- | --- | --- | --- | --- |
| MGVKFFTLSTRFFPSVQRAVPLWTNS [SHLP2, small humanin-like peptide, mtDNA 2092-2170] | protect the neurons from the cell death; also recorded: function as neuro-protective factors | much greater effect | delayed but sustained activation after 8 h | 9 | detected within 30 min | 6 fold | 9 | inhibited SHLP2-induced cell survival | abrogated the protective effects | abrogated | significantly inhibited | temporally similar to the timing of ERK activation | allowed the yeast to withstand 90° heat shock; also recorded: enhance yeast survival against heat shock | significantly enhanced STAT3 activation | strikingly induced adipocyte differentiation; also recorded: stimulate 3T3-L1 adipocyte differentiation |  |  |
| MLGYNFSSFPCGTISIAPGFNFYRLYFIWVNGLAKVVW [SHLP3, small humanin-like peptide, mtDNA 1707-1821] | protect the neurons from the cell death; also recorded: function as neuro-protective factors | much greater effect | activated ERK rapidly |  | more delayed response | no detectable increase | 15 |  | abrogated the protective effects | abrogated | significantly inhibited | only slightly stimulate | allowed the yeast to withstand 90° heat shock; also recorded: enhance yeast survival against heat shock | significantly enhanced STAT3 activation | strikingly induced adipocyte differentiation; also recorded: stimulate 3T3-L1 adipocyte differentiation | ≤ 2 | 12 |
